Reference: patent US8519007B2, “Use certain diterpene compounds in the treatment of androgen receptor-associated diseases” (Academia Sinica, priority 2008, dated 2013)
pIC50: −log10 of the molar value.

Legend:
AR = target: T1, AR (Homo sapiens, UniProt P10275, T878A); assay: AR nuclear translocation by confocal immunofluorescence in LNCaP cells; assay type: cell-based; conditions: steroid-deprived, 5 to 10 μM, 1 h
T1 construct: endogenous in cells; host or cells: LNCaP
T1 sequence (P10275 1-920 T878A): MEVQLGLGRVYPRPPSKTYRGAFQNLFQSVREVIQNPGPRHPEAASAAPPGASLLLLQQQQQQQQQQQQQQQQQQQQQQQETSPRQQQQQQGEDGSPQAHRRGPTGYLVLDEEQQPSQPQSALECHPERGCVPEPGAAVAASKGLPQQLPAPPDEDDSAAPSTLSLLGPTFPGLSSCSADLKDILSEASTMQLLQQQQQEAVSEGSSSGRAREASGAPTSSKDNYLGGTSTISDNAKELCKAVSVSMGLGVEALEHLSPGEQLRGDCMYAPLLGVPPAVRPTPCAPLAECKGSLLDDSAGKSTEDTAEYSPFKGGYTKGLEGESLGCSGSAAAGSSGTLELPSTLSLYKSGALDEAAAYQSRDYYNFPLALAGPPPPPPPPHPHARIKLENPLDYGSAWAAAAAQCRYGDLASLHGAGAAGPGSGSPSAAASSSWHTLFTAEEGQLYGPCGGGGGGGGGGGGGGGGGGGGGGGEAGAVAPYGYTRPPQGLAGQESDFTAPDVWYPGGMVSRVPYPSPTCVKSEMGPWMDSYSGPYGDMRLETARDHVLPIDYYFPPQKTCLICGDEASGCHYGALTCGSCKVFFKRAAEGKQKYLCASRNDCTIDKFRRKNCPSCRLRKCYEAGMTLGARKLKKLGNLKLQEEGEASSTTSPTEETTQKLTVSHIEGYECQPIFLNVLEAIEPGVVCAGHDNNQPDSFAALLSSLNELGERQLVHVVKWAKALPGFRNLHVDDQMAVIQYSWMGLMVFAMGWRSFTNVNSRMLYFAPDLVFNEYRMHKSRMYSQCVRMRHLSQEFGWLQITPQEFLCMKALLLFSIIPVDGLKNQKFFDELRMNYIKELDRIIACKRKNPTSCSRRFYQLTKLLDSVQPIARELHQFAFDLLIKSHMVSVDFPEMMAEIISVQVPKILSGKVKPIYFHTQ
Method: Specifically, LNCaP cells were grown in medium containing 5% charcoal-dextran stripped FBS on 12-mm coverslips for 48 h and then treated with vehicle or various compound treatments for another 1 h. Cells were fixed with 4% (v/v) paraformaldehyde on ice for 15 min, permeabilized with 0.2% (v/v) Triton X-100/PBS, and then washed with PBS three times. […] The samples were washed again and mounted in mounting medium (Vector, Burlingame, Calif.). The cellular location of AR was visualized by confocal microscopy (LSM 510 META, Carl Zeiss GmbH, Jena, Germany) and analyzed using the manufacturer's software.

22Rv1 cells = assay: Colony-forming growth assay; assay type: cell-based; conditions: Homo sapiens, 288 h; 22Rv1, 12 days; read-out: IC50 (anti-proliferation potency), colony growth
Method: (§1) FIGS. 3A-C. HDHS affects growth of PCa cells. A, Cell viability of different cell lines treated with vehicle (Ctrl) or indicated concentrations of HDHS for 48 h. The absorbance of the control group was defined as 100%. B, Colony-forming growth of LNCaP and 22Rv1 cells (AR-dependent PCa cells) and PC-3 cells (AR-independent PCa cells) in 24-well multi-dishes with indicated treatments for 12 days. The results were presented as percentage of growth with respect to control treatment of the same cell line. C, Photographs of different PCa cell lines growing on culture plates with designated treatments for […].
(§2) The long-term effect of HDHS on the malignant growth of AR-dependent (22Rv1, and LNCaP) and AR-independent (PC-3) PCa cells was examined by colony-forming growth assay. […] The differential effect was also reflected in the morphology of treated cells.

LNCaP cells = assay: Colony-forming growth assay; assay type: cell-based; conditions: Homo sapiens, 288 h, 12 days, read-out: IC50 (anti-proliferation potency), colony growth
Method: as §1, §2

PC-3 cells = assay: Colony-forming growth assay; assay type: cell-based; conditions: Homo sapiens, 288 h; PC-3, 12 days; read-out: IC50 (anti-proliferation potency), colony growth
Method: as §1, §2

androgen receptor = target: T2, androgen receptor (Homo sapiens, UniProt P10275); assay: PSA promoter luciferase reporter assay in 103E cells (AR transcriptional activity)
T2 sequence (P10275 with tags, fused parts or gaps DUP590-628/H875Y): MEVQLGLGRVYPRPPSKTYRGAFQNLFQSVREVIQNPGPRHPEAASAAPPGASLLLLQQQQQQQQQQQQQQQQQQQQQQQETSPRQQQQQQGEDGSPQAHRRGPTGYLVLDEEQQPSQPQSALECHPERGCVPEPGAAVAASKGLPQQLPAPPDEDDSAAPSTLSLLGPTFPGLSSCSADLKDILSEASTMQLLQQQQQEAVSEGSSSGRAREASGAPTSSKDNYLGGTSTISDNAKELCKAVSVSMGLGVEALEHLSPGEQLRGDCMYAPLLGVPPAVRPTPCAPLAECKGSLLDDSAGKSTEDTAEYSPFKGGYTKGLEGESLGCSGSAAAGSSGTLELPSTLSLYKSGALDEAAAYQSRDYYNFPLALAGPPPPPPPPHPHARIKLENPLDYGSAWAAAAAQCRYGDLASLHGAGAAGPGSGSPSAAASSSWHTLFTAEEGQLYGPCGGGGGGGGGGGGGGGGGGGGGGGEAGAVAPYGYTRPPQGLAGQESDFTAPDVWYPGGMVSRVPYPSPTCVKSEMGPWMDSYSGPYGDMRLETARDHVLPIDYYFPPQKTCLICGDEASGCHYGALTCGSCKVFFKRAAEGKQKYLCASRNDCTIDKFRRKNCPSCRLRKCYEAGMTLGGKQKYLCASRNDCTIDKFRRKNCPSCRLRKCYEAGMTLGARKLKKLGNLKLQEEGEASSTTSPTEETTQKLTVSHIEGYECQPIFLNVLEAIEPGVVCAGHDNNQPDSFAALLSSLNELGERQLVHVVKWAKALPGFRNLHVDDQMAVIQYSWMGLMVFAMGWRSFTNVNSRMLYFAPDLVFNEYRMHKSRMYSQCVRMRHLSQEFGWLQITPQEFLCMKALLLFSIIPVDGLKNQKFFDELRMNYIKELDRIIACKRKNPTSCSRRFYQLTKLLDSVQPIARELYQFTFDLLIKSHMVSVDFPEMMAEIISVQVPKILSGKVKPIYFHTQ
Method: PC-3 and NIH-3T3 were cultured in DMEM (Hyclone) supplemented with 10% FBS. Cultures were maintained in a humidified incubator at 37° C. in 5% CO2/air.
Cells were treated with various compounds for a period of 20 h and luciferase activity was measured using a luciferase reporter gene assay system (Promega).

For `CC(C)c1cc2c(cc1O)[C@@]1(C)CCCC(C)(C)C1=C(O)C2=O` [Compound 2, 6,12-dihydroxyabieta-5,8,11,13-tetraen-7-one], the AR nuclear localization (AR) was “significant AR accumulation in the nucleus”, the pIC50 (22Rv1 cells) was 5.20 and the pIC50 (LNCaP cells) was 5.12. For the same compound, the pIC50 (PC-3 cells) was 4.88, the “concentration achieving complete inhibition of PSA promoter activity” value (androgen receptor; 10 nmol/L DHT, 24 h) was “greater than 10 μM” and the “Inhibitionmax (%) of AR activity” value (androgen receptor; maximal inhibition at 10 μM) was 101 ± 4% (10 μM). The pIC50 (androgen receptor; read-out: IC50 for inhibiting DHT-induced PSA-luciferase reporter, cotreated with 10 nmol/L DHT, 24 h) was 5.32.
